From patent US20050075345A1, “Novel inhibitor compounds specific of secreted non-pancreatic human a2phospholipase of group II” (Yang Ji Chemical Company Ltd., priority 2001, published 2005) come the findings set out here.

The target of assay [1] is T1, porcine pancreatic PLA2 (group I) (Sus scrofa, UniProt P00592). The assay can be described thus: Fluorometric anti-PLA2 assay, porcine pancreatic PLA2 (group I). It counts as biochemical. To be noted: measured for fluorescence with porcine pancreatic PLA2 (group I); read-out: Anti-PLA2 activity IC50 PPLA2. How it is done: (§1) Phospholipase A2 hydrolyzes an ester linkage at the sn-2 position of glycerophospholipid and liberates fatty acids and lysophospholipids. The in vitro action of particular compounds was evaluated by the analysis of fatty acids according to the fluorometric method described in Radvanyi et al., Anal. Biochem. 1989, 177. 103-109, and by the analysis of lysophospholipids according to the UV spectrophotometric method described in Reynolds et al., Anal. Biochem. 1992, 204, 190-197.
(§2) Enzymes used were two secretory enzymes of group II (human recombinant PLA2, and PLA2 basic subunit isolated from Crotalus durissus terrificus), and a secretory enzyme of porcine pancreatic (group I) PLA2.
(§3) Regarding substrates, palmitoyl-2-(10-pyrenyl decanoyl)-sn-glycero-3-phosphatidylglycerolic acid as a fluorescent substrate was used in the fluorometric method, and the lithium salt of 1,2-bis-(dihexanylthio)-dideoxy-rac-glycero-3-phosphorylglycerol was used in the UV spectrophotometric method.
(§4) The fluorometric analysis was performed using a Perkin Elmer LS50 luminescence spectrometer in a unit dosage polystyrene cell having a size of 1 cm. The exact concentration of the fluorescent substrate was determined by UV Unicam spectrometry in a quartz cell.
(§5) PLA2 is an enzyme that hydrolyzes an ester linkage at the sn-2 position of phospholipid. […] After hydrolysis with the enzyme, fluorescence emitted by the liberated fatty acid (pyrenyl decanoic acid) complex with bovine serum albumin (BSA) is increased, and strong fluorescence emission is observed at 378 and 398 nm. The principle of the analysis is to measure a difference in fluorescence at 398 nm in order to examine the production of fatty acids liberated for a given period of time, thus determining the PLA2 activity.
(§6) Measurement of the enzymatic activity was performed in a cell containing: 960 μl of Tris buffer; 50 mM HCl (pH 7.5); 0.5 M NaCl, 1 mM EGTA; and 1 μl substrate. This mixture was stirred under reflux for one minute to permit the formation of vesicles of substrate, and then, 10 μl of 10% SAB, 10 μl of solvent (ethanol or DMSO) or inhibitor solution, 10 μl of PLA2 to a given concentration and finally 10 μl of 1 M calcium chloride (CaCl2) for initiating the activity were successively added to the mixture under stirring.
(§7) Good conditions of measurement of the enzymatic activity include saturation of the enzyme, and thus, initial concentrations used are as follows: (i) human recombinant PLA2: 0.1 μl/ml; (ii) porcine pancreatic PLA2: 0.6 μl/ml; and (iii) Crotalus durissus terrificus (CB) PLA2: 0.05 μl/ml. Mother solution containing the inhibitor was prepared at an initial concentration of 10^−2 M.
(§8) The enzymatic activity is shown by a curve of which the original slope permits to calculate the initial velocity of the reaction. The following equation permits to calculate the enzymatic activity (A; μmol) of fatty acids liberated per minute. In the equation, S0 represents the slope of a curve in the absence of calcium (control), S the slope in the presence of calcium, V the volume (μl) of the substrate solution, and Fmax the signal of maximum fluorescence obtained at the end of the enzymatic reaction: [formula]
(§9) The residual activity in the presence of an inhibitor was evaluated by slopes obtained in the absence and presence of an inhibitor, according to the following equation: Residual activity (%)=(S−S0) in the presence of inhibitor/(S−S0) in the absence of inhibitor
(§10) Values obtained as a logarithmic function of the inhibitor concentrations used permit to determine the IC50 value, i.e., the inhibitor concentration required to cause 50% reduction of the enzymatic activity. The lower the IC50 value, the higher the inhibitory activity of a compound tested.

Assay [2] has as its target T2, human recombinant PLA2 (group II) (Homo sapiens, UniProt P14555).
T2 sequence (P14555 21-144): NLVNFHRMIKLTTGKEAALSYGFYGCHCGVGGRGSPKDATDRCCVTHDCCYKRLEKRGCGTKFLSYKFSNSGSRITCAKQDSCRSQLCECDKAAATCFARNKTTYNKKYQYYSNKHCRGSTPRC
The assay can be described thus: Fluorometric anti-PLA2 assay, human recombinant PLA2 (group II). It counts as biochemical. Conditions: measured for fluorescence with human recombinant PLA2 (group II); read-out: Anti-PLA2 activity IC50 HPLA2. On the procedure:
as §1, §2, §3, §4, §5, §6, §7, §8, §9, §10

Assay [3] relates to ear edema induced by croton oil. The assay can be described thus: Croton oil-induced ear edema test, local anti-inflammatory effect. It counts as in vivo, male ICR mice. To be noted: mice, topical, 5 hours. On the procedure: A-2: As animals, male ICR mice weighing 25 g were used.
A-4: To evaluate the in vivo anti-inflammatory effect of the inventive PMS compounds as listed above, the ear edema test was used as an acute inflammatory experimental model.
After inducing edema on one ear of mice by the application of croton oil, the sample of each of the PMS compounds as described above was dissolved in 80% chloroform. […] The other ear was applied only with the solvent, i.e., 80% chloroform.
After 5 hours of the initiation of the experiment, the ear tissue at the level of edema was collected by a gimlet from the skin, and the tissue collected was compared with one collected from the control part of the ear by a gimlet, to calculate the percent inhibition.
A-5: To calculate the statistical significance, the results obtained in each of the […] and the […] were evaluated by Student's t-test.

Assay [4] has as its system PLA2 of Crotalus durissus terrificus (group II). The assay can be described thus: Fluorometric anti-PLA2 assay, Crotalus durissus terrificus PLA2 (CB). It counts as biochemical. To be noted: fluorometric method, read-out: Anti-PLA2 activity IC50 CB Fluo. How it is done:
as §1, §2, §3, §4
PLA2 is an enzyme that hydrolyzes an ester linkage at the sn-2 position of phospholipid. […] After hydrolysis with the enzyme, fluorescence emitted by the liberated fatty acid (pyrenyl decanoic acid) complex with bovine serum albumin (BSA) is increased, and strong fluorescence emission is observed at 378 and 398 nm. The principle of the analysis is to measure a difference in fluorescence at 398 nm in order to examine the production of fatty acids liberated for a given period of time, thus determining the PLA2 activity. […]
The residual activity in the presence of an inhibitor was evaluated by slopes obtained in the absence and presence of an inhibitor, according to the following equation: Residual activity (%)=(S−S0) in the presence of inhibitor/(S−S0) in the absence of inhibitor […]

Assay [5] shares this test system. The assay can be described thus: UV spectrophotometric anti-PLA2 assay, Crotalus durissus terrificus PLA2 (CB). It counts as biochemical. Conditions: UV spectrophotometric method, read-out: Anti-PLA2 activity IC50 CB Spectro. How it is done:
as §1, §2, §3
The UV spectrophotometric analysis was performed on an ELx 808 Ultra Micro Plate Reader apparatus (96-well plate).
Lysothiophospholipid (LTPL) liberated by the lypolytic action of PLA2 in the presence of calcium reacts with dithionitrobenzoic acid (DTNB) present in medium to form an LTPL-TNB complex and an TNB-anion which induces the yellowing of reaction medium.
The measurement of enzymatic activity is performed in a multiple well plate of which each well contains 190 μl of 1× buffer, 2 μl of 10 mM DTNB, […] of 20 mM substrate, 2 μl of solvent or inhibitor solution, and 2 μl of PLA2 at a given concentration. The plate was stirred and 2 μl of 1 M calcium chloride was added to initiate the enzymatic reaction. Substrate was used at a lower concentration than micellar critical concentration (about 1 mM) in a monomeric form, and the ratio of substrate to enzyme was respected. […]
(§11) Good conditions of measurement include saturation of enzyme. […] It calculated directly the initial velocity of the reaction. […]
(§12) 15 readings for each well (3 wells per concentration) were performed at intervals of 3 seconds.

The subject of assay [6] is carrageenan-induced edema. The assay can be described thus: Carrageenan-induced edema test in rats. It counts as in vivo. Conditions: dose of 10 mg/kg. On the procedure:
An in vivo activity assay was performed by a carrageenan-induced edema test in rats.
In the experimental protocol conducted, indomethacin as the reference product, or the compound No. 5, was administered intraperitoneally or orally at one hour before the injection of carrageenan into the hind leg of the rats. The volume of edema was measured at 0, 3 and 5 hours after the injection of carrageenan. The doses used were 5, 10 and 20 mg/kg for the two products tested.
(In general: In the carrageenan paw model, swelling and tenderness develop within hours.)

The target of assay [7] is T1, porcine pancreatic PLA2 (group I). The assay can be described thus: UV spectrophotometric anti-PLA2 assay, porcine pancreatic PLA2 (group I). It counts as biochemical. To be noted: UV spectrophotometric method, read-out: Anti-PLA2 activity IC50 PPLA2 spectro. On the procedure:
as §1, §2, §3
The UV spectrophotometric analysis was performed on an ELx 808 Ultra Micro Plate Reader apparatus (96-well plate). […]
as §11, §12

T1 sequence (P00592 23-146): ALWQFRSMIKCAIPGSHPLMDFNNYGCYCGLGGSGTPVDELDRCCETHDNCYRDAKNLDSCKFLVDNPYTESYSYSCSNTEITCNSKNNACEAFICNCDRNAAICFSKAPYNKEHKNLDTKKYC

`CCCCCCCCCCCCCCN1CCN(C(=O)c2ccc(Cc3noc(=O)[nH]3)cc2)CC1` [Example 8, 1-[4′-(4,5-dihydro-1,2,4(4H)-5-oxo-oxadiazol-3-ylmethyl)benzoyl]-4-tetradecylpiperazine]: the IC50 – broadly, the concentration that gives 50% inhibition – is above 100 µM in assay [1] and 18.7 µM in assay [2].

Take `CCCCCCCCCCCCN1CC(C)N(C(=O)c2ccc(Cc3noc(=O)[nH]3)cc2)CC1C` (centres unmarked) [Compound 13, 1-[4′-(4,5-dihydro-1,2,4(4H)-5-oxo-oxadiazol-3-ylmethyl)benzoyl]-2,5-dimethyl-4-dodecylpiperazine]: in assay [1], the IC50 is above 100 µM. The “Edema inhibition (%)” value in assay [3] (1 mg/ear) was 62.79 ± 3.23%.

`CCCCCCCCCCCCCCCCCCN1CCN(C(=O)c2ccc(CC3SC(=O)NC3=O)cc2)CC1` (centres unmarked) [Compound 15, 1-[4′-(2,4-dioxo-1,3-thiazolidin-5-ylmethyl)benzoyl]-4-octadecylpiperazine]: the IC50 is above 100 µM in assay [1], 1.4 µM in assay [4], 1 µM in assay [2] and 2 µM in assay [5].

Consider `CCCCCCCCCCCCCCN1CCN(C(=O)c2ccc(CCCc3noc(=O)[nH]3)cc2)CC1` [Example 9, 1-[4′-(4,5-dihydro-1,2,4(4H)-5-oxo-oxadiazol-3-ylpropyl)benzoyl]-4-tetradecylpiperazine], for which the figures for the IC50 in assay [1] and in assay [2] were above 100 µM and 5.3 µM, respectively.

Take `CCCCCCCCCCCCCCCCCCN1CCN(C(=O)c2ccc(Cc3noc(=O)[nH]3)cc2)CC1` [Compound 6, 1-[4′-(4,5-dihydro-1,2,4(4H)-5-oxo-oxadiazol-3-ylmethyl)benzoyl]-4-octadecylpiperazine]: the results for the IC50 in assay [4], in assay [2] and in assay [5] were 1.5 µM, 0.8 µM and 2 µM, respectively.

Turning to “1-[4′-(4,5-dihydro-1,2,4(4H)-5-oxo-oxadiazol-3-ylmethyl)benzyl]-4-tetradecylpiperazine [PMS 1281]”, the “Edema inhibition (%)” value in assay [3] (1 mg/ear) is given as 47.83 ± 12.34%.

Consider `COc1ccc2c(c1)c(CC(=O)O)c(C)n2C(=O)c1ccc(Cl)cc1` [Indomethacin, indomethacin], for which the inhibition of edema in assay [6] (intraperitoneal route, given one hour before carrageenan) came out at 79%; in assay [6] (oral route, at 5 hours after the injection of carrageenan) it was 16%. For the same compound, in assay [3] (0.5 mg/ear), the “Edema inhibition (%)” value is listed as 43.11 ± 8.79%.

Consider `CCCCCCCCCCCCCCCCCCN1CCN(C(=O)c2ccc(C=C3SC(=O)NC3=O)cc2)CC1` [Compound 14, [4-(4′-octadecylpiperazine-1′-ylcarbonyl)benzylidene]-1,3-thiazolidine-2,4-dione], for which the IC50 was 10 µM in assay [1]; 0.4 µM in assay [4]; 0.28 µM in assay [2]; above 100 µM in assay [7]; 0.4 µM in assay [5].

As for `CCCCCCCCCCCCCCCCCCN1CCN(c2ccc(Cc3noc(=O)[nH]3)cc2)CC1` [Compound 10, 1-[4′-(4,5-dihydro-1,2,4(4H)-5-oxo-oxadiazol-3-ylmethyl)phenyl]-4-octadecylpiperazine], the IC50 is above 100 µM in assay [1] and 2.71 µM in assay [2].

On to `CCCCCCCCCCCCCCN1CCN(Cc2ccc(Cc3noc(=O)[nH]3)cc2)C(=O)C1` [Example 7, 1-[4′-(4,5-dihydro-1,2,4(4H)-5-oxo-oxadiazol-3-ylmethyl)benzyl]-4-tetradecylpiperazin-2-one], for which the IC50 is above 100 µM in assay [1] and 30 µM in assay [2].

For the compound “1-[4′-(4,5-dihydro-1,2,4(4H)-5-oxo-oxadiazol-3-ylmethyl)benzoyl]-4-dodecylpiperazine [PMS 1314]”, the “Edema inhibition (%)” value in assay [3] (1 mg/ear) was 28.5 ± 6.85%.

Consider “1-[4′-(4,5-dihydro-1,2,4(4H)-5-oxo-oxadiazol-3-ylmethyl)benzyl]-4-tetradecylpiperazine [Compound 2]”, for which, in assay [2], the IC50 was above 10 µM. Moreover, in assay [3] (1 mg/ear, listed as PMS 1227), the “Edema inhibition (%)” value is on record as 51.45 ± 11.67%.
